System: 292921-168-R tumor spheroid viability
Assay: Anticancer human tumor 292921-168-R patient-derived pancreatic carcinoma cell line growth inhibition
Details: spheroids with HUVEC and MSC; for viability, T/C: stronger effect = lower value
How it was run: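 Complex spheroids of malignant cells with endothelial cells and mesenchymal stem cells; agents alone or combined, from near clinical Cmax (or 10 microM if unknown) down in half-log steps, 0.25% DMSO final.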
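Also: spheroids exposed to compounds for 7 days.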

COc1ccc([C@@H](O)c2cc(-c3ncnc4cc(N5CCOCC5)ccc34)c(F)cc2Cl)nn1 + COc1cc2c(cc1O)CCNC21CSC2c3c(OC(C)=O)c(C)c4c(c3C(COC1=O)N1C(O)C3Cc5cc(C)c(OC)c(O)c5C(C21)N3C)OCO4
IC50 (curve of first compound, second compound 30 pM): 1440 nM | IC50 (curve of first compound, second compound 94.9 pM): 871 nM | IC50 (curve of first compound, second compound 0.0003 µM): < 31.6 nM | IC50 (curve of first compound, second compound 0.000949 µM): < 31.6 nM | IC50 (curve of first compound, second compound 0.003 µM): < 31.6 nM | viability, T/C (second compound 30 pM, first compound 0.0316 µM): 100% | viability, T/C (second compound 30 pM, first compound 0.1 µM): 107% | viability, T/C (second compound 30 pM, first compound 0.316 µM): 95.6% | viability, T/C (second compound 30 pM, first compound 1 µM): 58.6% | viability, T/C (second compound 30 pM, first compound 3.16 µM): 31.1% | viability, T/C (second compound 30 pM, first compound 10 µM): 19.5% | viability, T/C (second compound 94.9 pM, first compound 0.0316 µM): 105% | viability, T/C (second compound 94.9 pM, first compound 0.1 µM): 99.2% | viability, T/C (second compound 94.9 pM, first compound 0.316 µM): 78.7% | viability, T/C (second compound 94.9 pM, first compound 1 µM): 45.4% | viability, T/C (second compound 94.9 pM, first compound 3.16 µM): 27.4% | viability, T/C (second compound 94.9 pM, first compound 10 µM): 19% | viability, T/C (second compound 0.0003 µM, first compound 0.0316 µM): 40.7% | viability, T/C (second compound 0.0003 µM, first compound 0.1 µM): 43.3% | viability, T/C (second compound 0.0003 µM, first compound 0.316 µM): 26.3% | viability, T/C (second compound 0.0003 µM, first compound 1 µM): 13.7% | viability, T/C (second compound 0.0003 µM, first compound 3.16 µM): 9.98% | viability, T/C (second compound 0.0003 µM, first compound 10 µM): 7.7% | viability, T/C (second compound 0.000949 µM, first compound 0.0316 µM): 2.51% | viability, T/C (second compound 0.000949 µM, first compound 0.1 µM): 2.48% | viability, T/C (second compound 0.000949 µM, first compound 0.316 µM): 0.8% | viability, T/C (second compound 0.000949 µM, first compound 1 µM): 0.09% | viability, T/C (second compound 0.000949 µM, first compound 3.16 µM): 0.1% | viability, T/C (second compound 0.000949 µM, first compound 10 µM): 0.26% | viability, T/C (second compound 0.003 µM, first compound 0.0316 µM): 0.14% | viability, T/C (second compound 0.003 µM, first compound 0.1 µM): 0.23% | viability, T/C (second compound 0.003 µM, first compound 0.316 µM): 0.49% | viability, T/C (second compound 0.003 µM, first compound 1 µM): 1.37% | viability, T/C (second compound 0.003 µM, first compound 3.16 µM): 1.46% | viability, T/C (second compound 0.003 µM, first compound 10 µM): 1.42%

Cn1nnc2c(C(N)=O)ncn2c1=O
viability, T/C (compound 1 µM): 94.3% [middle of 10 runs] | viability, T/C (compound 3.16 µM): 95.5% [middle of 10 runs] | viability, T/C (compound 10 µM): 94.8% [middle of 10 runs] | viability, T/C (compound 31.6 µM): 90.8% [middle of 10 runs] | viability, T/C (compound 100 µM): 85.8% [middle of 10 runs] | IC50 (compound alone, run of 10/17/2019): > 100000 nM

O=C(c1cc(Cc2n[nH]c(=O)c3ccccc23)ccc1F)N1CCN(C(=O)C2CC2)CC1 + Cn1nnc2c(C(N)=O)ncn2c1=O
IC50 (curve of first compound, second compound 1 µM): 12900 nM | IC50 (curve of first compound, second compound 3.16 µM): 17700 nM | IC50 (curve of first compound, second compound 10 µM): 8800 nM | IC50 (curve of first compound, second compound 31.6 µM): 4050 nM | IC50 (curve of first compound, second compound 100 µM): 573 nM | viability, T/C (second compound 1 µM, first compound 0.0949 µM): 89.2% | viability, T/C (second compound 1 µM, first compound 0.3 µM): 93.1% | viability, T/C (second compound 1 µM, first compound 0.949 µM): 87% | viability, T/C (second compound 1 µM, first compound 3 µM): 86.1% | viability, T/C (second compound 1 µM, first compound 9.49 µM): 55.6% | viability, T/C (second compound 1 µM, first compound 30 µM): 34.2% | viability, T/C (second compound 3.16 µM, first compound 0.0949 µM): 100% | viability, T/C (second compound 3.16 µM, first compound 0.3 µM): 101% | viability, T/C (second compound 3.16 µM, first compound 0.949 µM): 94% | viability, T/C (second compound 3.16 µM, first compound 3 µM): 93.6% | viability, T/C (second compound 3.16 µM, first compound 9.49 µM): 63.4% | viability, T/C (second compound 3.16 µM, first compound 30 µM): 38.5% | viability, T/C (second compound 10 µM, first compound 0.0949 µM): 94.7% | viability, T/C (second compound 10 µM, first compound 0.3 µM): 92.4% | viability, T/C (second compound 10 µM, first compound 0.949 µM): 96.5% | viability, T/C (second compound 10 µM, first compound 3 µM): 82.2% | viability, T/C (second compound 10 µM, first compound 9.49 µM): 48% | viability, T/C (second compound 10 µM, first compound 30 µM): 28.3% | viability, T/C (second compound 31.6 µM, first compound 0.0949 µM): 88% | viability, T/C (second compound 31.6 µM, first compound 0.3 µM): 86.6% | viability, T/C (second compound 31.6 µM, first compound 0.949 µM): 76% | viability, T/C (second compound 31.6 µM, first compound 3 µM): 56.8% | viability, T/C (second compound 31.6 µM, first compound 9.49 µM): 32.2% | viability, T/C (second compound 31.6 µM, first compound 30 µM): 21.4% | viability, T/C (second compound 100 µM, first compound 0.0949 µM): 74.6% | viability, T/C (second compound 100 µM, first compound 0.3 µM): 58.2% | viability, T/C (second compound 100 µM, first compound 0.949 µM): 44% | viability, T/C (second compound 100 µM, first compound 3 µM): 29% | viability, T/C (second compound 100 µM, first compound 9.49 µM): 19.1% | viability, T/C (second compound 100 µM, first compound 30 µM): 17.2%

— PubChem BioAssay AID1845196 (Molecular Pharmacology Branch, DTP, NCI, 2023)
